Assay results as given in patent publication US20110003760A1, “ABNORMAL PROTEIN REMOVING METHOD” (priority 2005, published 2011).

Test system: carbonylated type I collagen in three-dimensional human skin model
Assay: Carbonylated collagen in three-dimensional human skin model, type I collagen immunoprecipitation and Western blotting
Format: cell-based
Details: silybin 3 μM, Bletilla striata extract 0.1%, soybean saponin 0.0005%, alone or combined; for Relative photographic density (carbonylated collagen): Table 8, non-reduced protein, untreated without UV = 100%
Protocol: Three-dimensional human skin models are widely used in safety evaluation and effectiveness evaluation as a simulated model of human skin. In this test, TESTSKIN (LSE-high) (Toyobo Co., Ltd.) was used as a three-dimensional human skin model.
A culture medium was added to the outer well of TESTSKIN (LSE-high) and cultured for 24 hours. UVA and UVB were irradiated at 10 J/cm^2 and 100 mJ/cm^2, respectively. UVB was irradiated for 2 minutes at a UV intensity of […] using FL20S-E-30/DMR (Clinical Supply Co., Ltd.) to achieve a total irradiation dose of 100 mJ/cm^2. UV intensity was measured using a UV MONITOR MS-211-I (Eiko Instruments Co., Ltd.).
Thereafter, the culture solution was changed and each agent was added by 100 μl onto the tissues in the assay ring, after which the medium was cultured for 36 hours. […]
Using the protein derived from the three-dimensional human skin model extract treated with each agent, type I collagen was immunoprecipitated by means of a known method (Mizushima, et al., Jpn. J. Cancer Res. Vol. 93, pp. 652-659, 2002). […] The immunoprecipitate was washed three times using a STEN buffer solution, after which 50 μl of a SDS-PAGE sample buffer solution was added and the amount of carbonylated protein and amount of type I collagen were measured by means of Western blotting.
From the results shown in FIG. 7 and Table 7, it is clear that using silybin in combination with Bletilla striata extract, or using silybin in combination with soybean saponin, synergistically suppresses carbonylated protein. Next, whether or not carbonylation of type I collagen would be suppressed by using silybin in combination with Bletilla striata extract, or using silybin in combination with soybean saponin, was evaluated to check the possibility of using such combinations to remove oxidized collagen that accumulates with age to cause lines, sagging, dull complexion and other signs of aging skin. […]

COc1cc(C2Oc3cc([C@H]4Oc5cc(O)cc(O)c5C(=O)[C@@H]4O)ccc3OC2CO)ccc1O (stereo partly drawn) [Silybin, silybin]
Relative photographic density (carbonylated collagen) (head printed UV (−)): 430%
Relative photographic density (carbonylated collagen) (first column UV (−)): 72%
amount of carbonylated collagen compared to the sample not given any treatment under UV irradiation (non-reduced protein, UV irradiation): 72%
